Test results: EP2474542A1 (priority 2010, dated 2012)
Like-named read-outs stand apart in the source and are kept apart here.

Legend:
[1] = logP determination (HPLC/MS characterisation, HCOOH); format: physicochemical
Phytophthora infestans = format: in vivo; conditions: preventive, young tomato plants sprayed, 100ppm of active ingredient, evaluated 7 days after the inoculation; 0% = untreated control, 100% = no disease
[2] = HCOOH, HPLC/MS, read-out: logP(HCOOH)

SMILES | chromatographic logP [1, 2] | chromatographic logP ([1]; Table 1, read-out: log P) | Eff.% (Phytophthora infestans) [%]
Cn1nnnc1/C(=N\OCc1csc(N=C=O)n1)c1ccccc1 [(Z)-N-[(2-isocyanato-1,3-thiazol-4-yl)methoxy]-1-(1-methyl-1H-tetrazol-5-yl)-1-phenylmethanimine] | 3.13 | – | –
Cn1nnnc1/C(=N\OCc1csc(NC(=O)O/N=C/c2ccccc2)n1)c1ccccc1 [Example 1, ({4-[({[(Z)-(1-methyl-1H-tetrazol-5-yl)(phenyl)methylene]amino}oxy)methyl]-1,3-thiazol-2-yl}amino)({[(E)-phenylmethylene]amino}oxy)methanone] | 3.39 | 3.13 | 95
